According to patent US10670605B2, “Cysteine reactive probes and uses thereof” (The Scripps Research Institute, priority 2015, dated 2020):

Key:
Experiment in all cases: Competitive isoTOP-ABPP, cell lysates
Type in all cases: binding
[1] = target: T1, UBE2S C118 (Q16763) (Homo sapiens, UniProt Q16763); details: for isoTOP-ABPP ratio, Q16763_C118: 500 μM, invitro, ramos
T1 sequence (Q16763 1-222): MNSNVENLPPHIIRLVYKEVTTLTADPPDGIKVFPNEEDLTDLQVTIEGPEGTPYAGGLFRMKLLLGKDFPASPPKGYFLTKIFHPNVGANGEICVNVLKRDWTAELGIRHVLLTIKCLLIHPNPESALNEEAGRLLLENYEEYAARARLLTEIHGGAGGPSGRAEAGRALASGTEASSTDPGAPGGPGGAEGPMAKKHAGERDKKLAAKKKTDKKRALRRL

[2] = target: T2, USP22 C171 (Q9UPT9) (Homo sapiens, UniProt Q9UPT9); details: for isoTOP-ABPP ratio, Q9UPT9_C171: 500 μM, invitro, ramos
T2 sequence (Q9UPT9 1-525): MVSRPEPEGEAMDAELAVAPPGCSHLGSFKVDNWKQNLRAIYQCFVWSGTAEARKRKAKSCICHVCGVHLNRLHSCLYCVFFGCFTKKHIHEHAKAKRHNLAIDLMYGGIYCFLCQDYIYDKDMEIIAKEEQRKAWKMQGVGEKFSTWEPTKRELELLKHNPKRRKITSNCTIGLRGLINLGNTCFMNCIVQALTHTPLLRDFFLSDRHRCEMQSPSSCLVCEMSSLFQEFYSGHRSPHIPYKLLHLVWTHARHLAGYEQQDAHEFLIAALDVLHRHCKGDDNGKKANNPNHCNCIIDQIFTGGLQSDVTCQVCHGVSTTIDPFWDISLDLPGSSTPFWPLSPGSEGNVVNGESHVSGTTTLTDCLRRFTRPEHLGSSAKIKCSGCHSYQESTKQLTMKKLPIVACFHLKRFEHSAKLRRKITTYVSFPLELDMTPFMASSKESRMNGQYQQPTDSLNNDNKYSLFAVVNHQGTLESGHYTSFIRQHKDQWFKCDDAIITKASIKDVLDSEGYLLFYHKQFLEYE

[3] = target: T3, ACAT1 C119 (P24752) (Homo sapiens, UniProt P24752); details: for isoTOP-ABPP ratio P24752_C119: 500 μM, invitro
T3 sequence (P24752 34-427): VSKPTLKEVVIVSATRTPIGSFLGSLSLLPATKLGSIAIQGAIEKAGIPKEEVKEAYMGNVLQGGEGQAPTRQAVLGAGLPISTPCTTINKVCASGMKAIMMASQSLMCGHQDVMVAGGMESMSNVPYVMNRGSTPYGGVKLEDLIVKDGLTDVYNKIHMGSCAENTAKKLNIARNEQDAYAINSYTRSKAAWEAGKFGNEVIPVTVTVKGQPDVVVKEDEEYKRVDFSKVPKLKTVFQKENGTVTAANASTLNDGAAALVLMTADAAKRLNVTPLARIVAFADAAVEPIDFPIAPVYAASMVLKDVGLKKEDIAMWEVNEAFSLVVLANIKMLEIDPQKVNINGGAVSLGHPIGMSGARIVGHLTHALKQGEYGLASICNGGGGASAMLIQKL

[4] = target: T4, ACAT1 C196 (P24752) (Homo sapiens, UniProt P24752); details: for isoTOP-ABPP ratio, P24752_C196: 500 μM, invitro
T4 sequence (P24752 34-427): T3 sequence (P24752 34-427)

[5] = target: T5, ACAT1 C413 (P24752) (Homo sapiens, UniProt P24752); details: for isoTOP-ABPP ratio P24752_C413: 500 μM, invitro
T5 sequence (P24752 34-427): T3 sequence (P24752 34-427)

[6] = target: T6, ACAT1 C126 (P24752) (Homo sapiens, UniProt P24752); details: for isoTOP-ABPP ratio, P24752_C126: 500 μM, invitro
T6 sequence (P24752 34-427): T3 sequence (P24752 34-427)

SMILES	isoTOP-ABPP reactivity ratio, Q16763_C118 ([1]; 500 μm, in-vitro_ramos)	isoTOP-ABPP reactivity ratio, P24752_C119 ([3]; 500 μm, in-vitro_ramos)	isoTOP-ABPP reactivity ratio, P24752_C196 ([4]; 500 μm, in-vitro_ramos)	isoTOP-ABPP reactivity ratio, P24752_C413 ([5]; 500 μm, in-vitro_ramos)	isoTOP-ABPP ratio (reactivity profile), Q16763_C118 ([1]; 500 μm in-vitro ramos)	isoTOP-ABPP ratio (reactivity profile), Q9UPT9_C171 ([2]; 500 μm in-vitro ramos)	isoTOP-ABPP ratio (reactivity profile), P24752_C119 ([3]; 500 μm in-vitro ramos)	isoTOP-ABPP ratio (reactivity profile), P24752_C119 ([3]; 500 μm in-vitro ramos_231)	isoTOP-ABPP ratio (reactivity profile), P24752_C196 ([4]; 500 μm in-vitro ramos)	isoTOP-ABPP ratio (reactivity profile), P24752_C196 ([4]; 500 μm in-vitro ramos_231)	isoTOP-ABPP ratio (reactivity profile), P24752_C413 ([5]; 500 μm in-vitro ramos)	isoTOP-ABPP ratio (reactivity profile), P24752_C413 ([5]; 500 μm in-vitro ramos_231)	isoTOP-ABPP ratio (reactivity profile), P24752_C126 ([6]; 500 μm in-vitro ramos)	isoTOP-ABPP ratio (reactivity profile), P24752_C126 ([6]; 500 μm in-vitro ramos_231)	other results
C=CC(=O)Nc1cc(F)c(N2CCN(C(=O)OC(C)(C)C)CC2)c(F)c1 [compound 38]	1.0	1.7	1.3	20.0	–	–	–	–	–	–	–	–	–	–	isoTOP-ABPP reactivity ratio, Q16763_C118 ([1]; 500 μm, in-vitro_ramos_231): 1.0; isoTOP-ABPP reactivity ratio, Q9UPT9_C171 ([2]; 500 μm, in-vitro_ramos_231): 1.4; isoTOP-ABPP reactivity ratio, P24752_C119 ([3]; 500 μm, in-vitro_ramos_231): 1.0; isoTOP-ABPP reactivity ratio, P24752_C196 ([4]; 500 μm, in-vitro_ramos_231): 1.0; isoTOP-ABPP reactivity ratio, P24752_C413 ([5]; 500 μm, in-vitro_ramos_231): 1.1; isoTOP-ABPP reactivity ratio, P24752_C126 ([6]; 500 μm, in-vitro_ramos): 1.4; isoTOP-ABPP reactivity ratio, P24752_C126 ([6]; 500 μm, in-vitro_ramos_231): 1.0
O=C(CCl)NC(=O)NC12CC3CC(CC(C3)C1)C2 [compound 12]	–	–	–	–	–	–	–	–	–	–	–	–	–	–	isoTOP-ABPP ratio, Q16763_C118 [1]: 0.6; isoTOP-ABPP ratio, Q9UPT9_C171 [2]: 4.1; isoTOP-ABPP ratio P24752_C119 [3]; 231: 1.0; isoTOP-ABPP ratio P24752_C119 ([3]; ramos): 0.7; isoTOP-ABPP ratio, P24752_C196 [4]; 231: 1.2; isoTOP-ABPP ratio, P24752_C196 ([4]; ramos): 0.9; isoTOP-ABPP ratio P24752_C413 [5]; 231: 1.5; isoTOP-ABPP ratio P24752_C413 ([5]; ramos): 1.1; isoTOP-ABPP ratio, P24752_C126 [6]; 231: 1.0; isoTOP-ABPP ratio, P24752_C126 ([6]; ramos): 1.1
C=CC(=O)N(Cc1cccnc1)c1cc(C(F)(F)F)cc(C(F)(F)F)c1 [compound 31]	0.8	0.7	0.9	1.0	–	–	–	–	–	–	–	–	–	–	isoTOP-ABPP reactivity ratio, Q16763_C118 ([1]; 500 μm, in-vitro_ramos_231): 0.9; isoTOP-ABPP reactivity ratio, Q9UPT9_C171 ([2]; 500 μm, in-vitro_ramos_231): 2.1; isoTOP-ABPP reactivity ratio, P24752_C119 ([3]; 500 μm, in-vitro_ramos_231): 1.3; isoTOP-ABPP reactivity ratio, P24752_C196 ([4]; 500 μm, in-vitro_ramos_231): 1.2; isoTOP-ABPP reactivity ratio, P24752_C413 ([5]; 500 μm, in-vitro_ramos_231): 1.6; isoTOP-ABPP reactivity ratio, P24752_C126 ([6]; 500 μm, in-vitro_ramos_231): 1.1
O=C(CCl)NCCc1c[nH]c2ccccc12 [compound 13]	–	–	–	–	–	–	–	–	–	–	–	–	–	–	isoTOP-ABPP ratio, Q16763_C118 [1]: 0.7; isoTOP-ABPP ratio, Q9UPT9_C171 [2]: 0.8; isoTOP-ABPP ratio P24752_C119 [3]; 231: 1.2; isoTOP-ABPP ratio P24752_C119 ([3]; ramos): 0.6; isoTOP-ABPP ratio, P24752_C196 [4]; 231: 1.6; isoTOP-ABPP ratio, P24752_C196 ([4]; ramos): 1.7; isoTOP-ABPP ratio P24752_C413 [5]; 231: 5.5; isoTOP-ABPP ratio P24752_C413 ([5]; ramos): 7.3; isoTOP-ABPP ratio, P24752_C126 [6]; 231: 9.6; isoTOP-ABPP ratio, P24752_C126 ([6]; ramos): 20.0
O=C(CCl)N1CCOCC1 [compound 22]	–	–	–	–	0.9	1.1	0.8	1.0	0.7	1.4	1.1	1.1	1.7	2.4	–
CC(Cl)C(=O)Nc1cc(C(F)(F)F)cc(C(F)(F)F)c1 (stereo not drawn) [compound 25]	–	–	–	–	–	–	–	1.0	–	0.9	–	1.0	–	0.9	isoTOP-ABPP ratio (reactivity profile), Q16763_C118 ([1]; 500 μm in-vitro ramos_231): 1.0; isoTOP-ABPP ratio (reactivity profile), Q9UPT9_C171 ([2]; 500 μm in-vitro ramos_231): 1.1
CC(Br)C(=O)Nc1cc(C(F)(F)F)cc(C(F)(F)F)c1 (stereo not drawn) [compound 24]	–	–	–	–	1.2	3.1	1.3	–	1.1	–	1.2	–	1.1	–	–
N#CC(=Cc1ccc(-c2ccccc2Cl)o1)C(N)=O [compound 42]	–	–	–	–	–	–	–	–	–	–	–	–	–	–	isoTOP-ABPP reactivity profile ratio, Q16763_C118 ([1]; 500 μm, in-vitro_ramos): 0.8; isoTOP-ABPP reactivity profile ratio, Q9UPT9_C171 ([2]; 500 μm, in-vitro_ramos): 1.0; isoTOP-ABPP reactivity profile ratio, P24752_C119 ([3]; 500 μm, in-vitro_ramos): 0.8; isoTOP-ABPP reactivity profile ratio, P24752_C196 ([4]; 500 μm, in-vitro_ramos): 0.8; isoTOP-ABPP reactivity profile ratio, P24752_C413 ([5]; 500 μm, in-vitro_ramos): 0.7; isoTOP-ABPP reactivity profile ratio, P24752_C126 ([6]; 500 μm, in-vitro_ramos): 0.8
O=C(CCl)N1CCC(C(O)(c2ccccc2)c2ccccc2)CC1 [compound 20]	–	–	–	–	2.9	20.0	2.6	3.6	2.9	3.7	14.0	20.0	20.0	10.6	–
CCN(CC)c1ccc(S(N)(=O)=O)cc1NC(=O)CCl [compound 30]	1.1	0.9	1.1	1.9	0.7	–	0.7	–	0.8	–	1.1	–	1.1	–	isoTOP-ABPP reactivity ratio, Q9UPT9_C171 ([2]; 500 μm, in-vitro_ramos): 2.3; isoTOP-ABPP reactivity ratio, P24752_C126 ([6]; 500 μm, in-vitro_ramos): 1.6
